Measurements as given in the kinase profiling compilation of Christmann-Franck et al. (2016).

Tests used:
Experiment in all cases: KINOMEscan competition binding
Conditions in all cases: compound 1.0 µM
BMPR1A (human) = BMPR1A (human) (UniProt P36894)
PLK4 (human) = PLK4 (human) (UniProt O00444)
MAP2K2 (human) = MAP2K2 (human) (UniProt P36507)
RPS6KA6 KD2 (human) = RPS6KA6 KD2 (human) (UniProt Q9UK32)
LIMK1 (human) = LIMK1 (human) (UniProt P53667)
EPHA7 (human) = EPHA7 (human) (UniProt Q15375)
[1] = system: EGFR (human), P00533 [G719S]
CHUK (human) = CHUK (human) (UniProt O15111)
RPS6KA5 KD1 (human) = RPS6KA5 KD1 (human) (UniProt O75582)
BTK (human) = BTK (human) (UniProt Q06187)
BTK (human), sequence (Q06187 whole entry, looked up): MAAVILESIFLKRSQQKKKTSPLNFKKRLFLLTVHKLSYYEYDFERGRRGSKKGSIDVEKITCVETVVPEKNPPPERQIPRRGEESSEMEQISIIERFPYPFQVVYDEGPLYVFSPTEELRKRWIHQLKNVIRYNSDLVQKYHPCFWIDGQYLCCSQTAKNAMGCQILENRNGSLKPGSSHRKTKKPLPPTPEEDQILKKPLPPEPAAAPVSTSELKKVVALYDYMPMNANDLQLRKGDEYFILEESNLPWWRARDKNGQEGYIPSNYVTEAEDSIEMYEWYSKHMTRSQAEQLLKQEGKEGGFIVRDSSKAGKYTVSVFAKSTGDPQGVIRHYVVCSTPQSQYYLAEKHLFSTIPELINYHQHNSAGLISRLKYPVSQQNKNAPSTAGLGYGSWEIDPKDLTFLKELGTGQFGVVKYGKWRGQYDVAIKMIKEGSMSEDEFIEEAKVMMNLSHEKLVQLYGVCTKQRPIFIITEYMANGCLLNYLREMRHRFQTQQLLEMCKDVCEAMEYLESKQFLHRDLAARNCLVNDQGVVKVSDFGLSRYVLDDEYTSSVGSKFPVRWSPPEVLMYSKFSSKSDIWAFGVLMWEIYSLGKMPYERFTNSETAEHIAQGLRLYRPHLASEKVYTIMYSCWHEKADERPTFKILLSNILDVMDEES

MAPK1 (human) = MAPK1 (human) (UniProt P28482)
MAPK1 (human), sequence (P28482 whole entry, looked up): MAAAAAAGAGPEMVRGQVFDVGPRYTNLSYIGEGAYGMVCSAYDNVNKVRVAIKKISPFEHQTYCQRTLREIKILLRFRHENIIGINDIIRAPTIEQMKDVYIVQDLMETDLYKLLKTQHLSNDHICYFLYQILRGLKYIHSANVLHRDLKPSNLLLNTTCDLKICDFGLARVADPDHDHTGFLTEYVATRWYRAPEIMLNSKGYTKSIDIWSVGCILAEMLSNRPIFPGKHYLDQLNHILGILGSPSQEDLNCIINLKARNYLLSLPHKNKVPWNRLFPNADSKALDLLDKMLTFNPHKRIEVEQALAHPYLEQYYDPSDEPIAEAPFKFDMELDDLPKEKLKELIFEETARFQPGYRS

CAMK2G (human) = CAMK2G (human) (UniProt Q13555)
CASK (human) = CASK (human) (UniProt O14936)
CDK18 (human) = CDK18 (human) (UniProt Q07002)
AKT2 (human) = AKT2 (human) (UniProt P31751)
TNIK (human) = TNIK (human) (UniProt Q9UKE5)
TNIK (human), sequence (Q9UKE5 whole entry, looked up): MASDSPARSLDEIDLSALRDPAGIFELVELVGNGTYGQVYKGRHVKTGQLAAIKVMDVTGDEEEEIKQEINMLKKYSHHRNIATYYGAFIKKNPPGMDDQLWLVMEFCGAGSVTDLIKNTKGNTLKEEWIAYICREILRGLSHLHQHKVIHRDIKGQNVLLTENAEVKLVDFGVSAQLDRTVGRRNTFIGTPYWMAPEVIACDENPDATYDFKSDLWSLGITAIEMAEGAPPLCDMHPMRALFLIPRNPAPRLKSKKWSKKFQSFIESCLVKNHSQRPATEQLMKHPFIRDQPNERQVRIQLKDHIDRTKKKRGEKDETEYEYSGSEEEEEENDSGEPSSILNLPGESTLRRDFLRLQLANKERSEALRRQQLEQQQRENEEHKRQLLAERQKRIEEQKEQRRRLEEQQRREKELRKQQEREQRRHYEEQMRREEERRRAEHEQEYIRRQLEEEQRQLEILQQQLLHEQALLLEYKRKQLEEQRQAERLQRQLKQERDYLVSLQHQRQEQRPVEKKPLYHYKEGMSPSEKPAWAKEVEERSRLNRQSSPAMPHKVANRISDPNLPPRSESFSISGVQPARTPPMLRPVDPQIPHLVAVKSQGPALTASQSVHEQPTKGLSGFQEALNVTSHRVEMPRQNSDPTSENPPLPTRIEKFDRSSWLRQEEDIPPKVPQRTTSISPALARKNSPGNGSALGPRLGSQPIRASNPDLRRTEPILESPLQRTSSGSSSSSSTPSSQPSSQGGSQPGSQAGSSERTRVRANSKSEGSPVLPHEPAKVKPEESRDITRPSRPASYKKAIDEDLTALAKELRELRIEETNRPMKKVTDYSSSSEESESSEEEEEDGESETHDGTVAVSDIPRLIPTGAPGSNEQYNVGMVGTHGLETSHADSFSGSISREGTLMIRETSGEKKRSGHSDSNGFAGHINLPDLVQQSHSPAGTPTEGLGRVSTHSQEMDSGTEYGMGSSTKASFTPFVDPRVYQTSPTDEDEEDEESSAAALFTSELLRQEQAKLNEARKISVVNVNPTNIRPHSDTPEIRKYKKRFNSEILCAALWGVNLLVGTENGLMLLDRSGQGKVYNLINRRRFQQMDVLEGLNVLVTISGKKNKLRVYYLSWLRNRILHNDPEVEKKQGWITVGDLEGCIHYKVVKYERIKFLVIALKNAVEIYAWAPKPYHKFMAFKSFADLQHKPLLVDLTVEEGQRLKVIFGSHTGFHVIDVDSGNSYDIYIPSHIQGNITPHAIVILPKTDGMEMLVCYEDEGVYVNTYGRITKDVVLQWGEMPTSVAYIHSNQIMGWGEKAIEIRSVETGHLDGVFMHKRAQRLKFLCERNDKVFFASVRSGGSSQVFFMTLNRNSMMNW

MAP4K1 (human) = MAP4K1 (human) (UniProt Q92918)
NLK (human) = NLK (human) (UniProt Q9UBE8)
EPHA8 (human) = EPHA8 (human) (UniProt P29322)
PKN2 (human) = PKN2 (human) (UniProt Q16513)
DYRK1B (human) = DYRK1B (human) (UniProt Q9Y463)
[2] = system: PIK3CA (human), P42336 [C420R]
PIK3C2G (human) = PIK3C2G (human) (UniProt O75747)
RIOK2 (human) = RIOK2 (human) (UniProt Q9BVS4)
TESK1 (human) = TESK1 (human) (UniProt Q15569)
IGF1R (human) = IGF1R (human) (UniProt P08069)
IGF1R (human), sequence (P08069 whole entry, looked up): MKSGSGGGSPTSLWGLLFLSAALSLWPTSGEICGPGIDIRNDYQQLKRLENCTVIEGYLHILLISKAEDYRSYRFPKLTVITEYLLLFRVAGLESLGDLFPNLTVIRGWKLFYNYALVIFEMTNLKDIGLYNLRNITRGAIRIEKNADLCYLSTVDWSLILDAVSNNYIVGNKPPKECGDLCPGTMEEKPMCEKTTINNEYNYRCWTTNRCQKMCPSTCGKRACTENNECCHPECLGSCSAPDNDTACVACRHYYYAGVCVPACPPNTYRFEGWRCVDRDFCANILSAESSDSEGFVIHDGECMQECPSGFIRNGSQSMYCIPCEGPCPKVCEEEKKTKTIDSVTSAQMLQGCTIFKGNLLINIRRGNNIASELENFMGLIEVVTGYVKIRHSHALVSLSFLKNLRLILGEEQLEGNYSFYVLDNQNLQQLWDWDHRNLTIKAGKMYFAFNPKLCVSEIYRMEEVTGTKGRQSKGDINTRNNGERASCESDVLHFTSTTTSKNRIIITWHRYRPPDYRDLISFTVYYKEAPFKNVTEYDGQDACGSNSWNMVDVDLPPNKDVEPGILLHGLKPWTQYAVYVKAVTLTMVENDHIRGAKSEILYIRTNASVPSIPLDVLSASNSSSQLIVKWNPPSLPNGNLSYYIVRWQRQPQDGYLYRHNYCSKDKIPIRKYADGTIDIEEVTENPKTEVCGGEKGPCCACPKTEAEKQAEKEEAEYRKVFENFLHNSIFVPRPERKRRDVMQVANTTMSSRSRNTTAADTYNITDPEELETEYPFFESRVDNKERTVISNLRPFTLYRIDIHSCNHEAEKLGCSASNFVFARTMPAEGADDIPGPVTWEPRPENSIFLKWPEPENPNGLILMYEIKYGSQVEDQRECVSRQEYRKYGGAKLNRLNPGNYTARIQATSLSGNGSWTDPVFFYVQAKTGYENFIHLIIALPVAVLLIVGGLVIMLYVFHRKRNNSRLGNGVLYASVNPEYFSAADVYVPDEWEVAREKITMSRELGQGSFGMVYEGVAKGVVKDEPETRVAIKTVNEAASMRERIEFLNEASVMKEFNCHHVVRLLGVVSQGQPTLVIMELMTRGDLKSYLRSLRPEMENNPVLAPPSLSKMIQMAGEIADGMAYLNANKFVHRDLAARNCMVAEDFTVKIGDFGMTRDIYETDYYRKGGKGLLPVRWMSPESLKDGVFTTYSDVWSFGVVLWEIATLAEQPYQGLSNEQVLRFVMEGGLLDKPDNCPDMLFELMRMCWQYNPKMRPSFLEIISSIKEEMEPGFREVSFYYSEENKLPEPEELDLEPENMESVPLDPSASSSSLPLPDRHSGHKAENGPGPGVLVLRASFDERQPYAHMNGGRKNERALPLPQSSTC

EPHA3 (human) = EPHA3 (human) (UniProt P29320)
MAPK12 (human) = MAPK12 (human) (UniProt P53778)
MAPK12 (human), sequence (P53778 whole entry, looked up): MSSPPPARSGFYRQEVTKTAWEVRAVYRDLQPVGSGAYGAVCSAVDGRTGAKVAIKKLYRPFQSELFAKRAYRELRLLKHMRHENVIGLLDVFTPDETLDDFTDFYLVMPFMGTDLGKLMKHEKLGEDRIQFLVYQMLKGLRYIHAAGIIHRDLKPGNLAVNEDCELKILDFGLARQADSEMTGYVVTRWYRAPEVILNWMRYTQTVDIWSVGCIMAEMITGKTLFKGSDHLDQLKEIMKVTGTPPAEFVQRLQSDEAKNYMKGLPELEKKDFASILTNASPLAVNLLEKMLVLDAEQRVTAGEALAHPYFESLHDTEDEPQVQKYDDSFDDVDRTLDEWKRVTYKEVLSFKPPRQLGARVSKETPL

ZAP70 (human) = ZAP70 (human) (UniProt P43403)
CSNK2A1 (human) = CSNK2A1 (human) (UniProt P68400)
MAPK11 (human) = MAPK11 (human) (UniProt Q15759)
EPHB1 (human) = EPHB1 (human) (UniProt P54762)
EPHB1 (human), sequence (P54762 whole entry, looked up): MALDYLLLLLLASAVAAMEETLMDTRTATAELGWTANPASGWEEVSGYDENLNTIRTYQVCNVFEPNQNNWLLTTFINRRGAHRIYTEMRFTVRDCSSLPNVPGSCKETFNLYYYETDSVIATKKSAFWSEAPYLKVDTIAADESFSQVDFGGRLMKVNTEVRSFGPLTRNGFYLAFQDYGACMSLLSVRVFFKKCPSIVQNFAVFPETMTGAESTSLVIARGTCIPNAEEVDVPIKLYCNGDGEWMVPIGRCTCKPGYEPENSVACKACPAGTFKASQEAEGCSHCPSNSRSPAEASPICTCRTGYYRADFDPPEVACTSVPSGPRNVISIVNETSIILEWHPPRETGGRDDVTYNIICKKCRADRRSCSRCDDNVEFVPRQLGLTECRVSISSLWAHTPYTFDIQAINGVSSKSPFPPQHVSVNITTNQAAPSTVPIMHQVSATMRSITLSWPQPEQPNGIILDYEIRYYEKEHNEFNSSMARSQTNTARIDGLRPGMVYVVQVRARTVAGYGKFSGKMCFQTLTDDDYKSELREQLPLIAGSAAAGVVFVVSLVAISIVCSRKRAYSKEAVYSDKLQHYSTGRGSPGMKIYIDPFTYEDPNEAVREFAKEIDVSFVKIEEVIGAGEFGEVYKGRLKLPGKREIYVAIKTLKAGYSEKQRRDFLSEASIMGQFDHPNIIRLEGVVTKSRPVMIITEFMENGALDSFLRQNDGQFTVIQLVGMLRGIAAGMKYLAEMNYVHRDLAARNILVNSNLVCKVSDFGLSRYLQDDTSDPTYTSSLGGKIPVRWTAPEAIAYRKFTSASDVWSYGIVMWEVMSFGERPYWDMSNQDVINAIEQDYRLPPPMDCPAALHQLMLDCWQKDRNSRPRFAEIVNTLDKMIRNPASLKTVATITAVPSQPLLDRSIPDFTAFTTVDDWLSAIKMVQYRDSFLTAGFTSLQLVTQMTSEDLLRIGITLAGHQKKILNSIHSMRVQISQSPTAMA

WEE1 (human) = WEE1 (human) (UniProt P30291)
MAP4K5 (human) = MAP4K5 (human) (UniProt Q9Y4K4)
AKT3 (human) = AKT3 (human) (UniProt Q9Y243)
[3] = system: MET (human), P08581 [M1250T]
STK38L (human) = STK38L (human) (UniProt Q9Y2H1)
PIM1 (human) = PIM1 (human) (UniProt P11309)
PIK3CB (human) = PIK3CB (human) (UniProt P42338)
[4] = system: EGFR (human), P00533 [P753S; 747-752 del]
[5] = system: KIT (human), P10721 [D816H]

COCCNCCCn1c(C(=O)CF)c(-c2ccc(C)cc2)c2c(N)ncnc21
kinase still bound, per cent of control (BMPR1A (human)): 100% | kinase still bound, per cent of control (PLK4 (human)): 100% | kinase still bound, per cent of control (MAP2K2 (human)): 100% | kinase still bound, per cent of control (RPS6KA6 KD2 (human)): 2.4% | kinase still bound, per cent of control (LIMK1 (human)): 100% | kinase still bound, per cent of control (EPHA7 (human)): 92% | kinase still bound, per cent of control [1]: 90% | kinase still bound, per cent of control (CHUK (human)): 72% | kinase still bound, per cent of control (RPS6KA5 KD1 (human)): 79% | kinase still bound, per cent of control (BTK (human)): 87% | kinase still bound, per cent of control (MAPK1 (human)): 100% | kinase still bound, per cent of control (CAMK2G (human)): 100% | kinase still bound, per cent of control (CASK (human)): 62% | kinase still bound, per cent of control (CDK18 (human)): 100% | kinase still bound, per cent of control (AKT2 (human)): 95% | kinase still bound, per cent of control (TNIK (human)): 95% | kinase still bound, per cent of control (MAP4K1 (human)): 86% | kinase still bound, per cent of control (NLK (human)): 96% | kinase still bound, per cent of control (EPHA8 (human)): 75% | kinase still bound, per cent of control (PKN2 (human)): 94% | kinase still bound, per cent of control (DYRK1B (human)): 96% | kinase still bound, per cent of control [2]: 100% | kinase still bound, per cent of control (PIK3C2G (human)): 92% | kinase still bound, per cent of control (RIOK2 (human)): 100% | kinase still bound, per cent of control (TESK1 (human)): 100% | kinase still bound, per cent of control (IGF1R (human)): 100% | kinase still bound, per cent of control (EPHA3 (human)): 88% | kinase still bound, per cent of control (MAPK12 (human)): 100% | kinase still bound, per cent of control (ZAP70 (human)): 85% | kinase still bound, per cent of control (CSNK2A1 (human)): 100% | kinase still bound, per cent of control (MAPK11 (human)): 90% | kinase still bound, per cent of control (EPHB1 (human)): 94% | kinase still bound, per cent of control (WEE1 (human)): 94% | kinase still bound, per cent of control (MAP4K5 (human)): 86% | kinase still bound, per cent of control (AKT3 (human)): 86% | kinase still bound, per cent of control [3]: 95% | kinase still bound, per cent of control (STK38L (human)): 92% | kinase still bound, per cent of control (PIM1 (human)): 100% | kinase still bound, per cent of control (PIK3CB (human)): 89% | kinase still bound, per cent of control [4]: 100% | kinase still bound, per cent of control [5]: 97%
